Patent publication US7816497B2, “Compositions and methods for inhibiting drusen complement components C3a and C5a for the treatment of age-related macular degeneration” (University of Kentucky, priority 2002, dated 2010)

Key:
laser-induced CNV = assay: Laser-induced CNV in wild-type mice, intravitreous injection of complement blockers; assay type: in vivo; settings: intravitreous injection immediately after laser injury, compared with control peptide or isotype control antibodies
Method: Laser photocoagulation (532 nm, 200 mW, 100 ms, 75 μm) (OcuLight GL, Iridex) was performed (volume studies: 3/eye; protein analyses/flow cytometry: 12/eye) on both eyes of each animal to induce CNV as previously described in Sakurai, E., Taguchi, H., Anand, A., Ambati, B. K., Gragoudas, E. S., Miller, J. W., Adamis, A. P. & Ambati, J. (2003) Invest Ophthalmol Vis Sci 44, 2743-9; and Sakurai, E., Anand, A., Ambati, B. K., van Rooijen, N. & Ambati, J. (2003) Invest Ophthalmol Vis Sci 44, 3578-85. CNV volumes were measured by scanning laser confocal microscope (TCS SP, Leica) as previously reported (Id.) with 0.5% FITC-Griffonia simplicifolia Isolectin B4 (Vector Laboratories) or 0.5% FITC-rat antibody against mouse CD31 (BD Pharmingen). Volumes obtained by lectin and CD31 staining were highly correlated (r^2=0.95). […]
Because the probability of each laser lesion developing CNV is influenced by the group to which it belongs, the mouse, the eye, and the laser spot, the mean lesion volumes were compared using a linear mixed model with a split plot repeated measures design, as previously described. […] Statistical significance was determined at the 0.05 level. […]

human RPE cells = assay: VEGF secretion by human RPE cells (VEGF ELISA); assay type: cell-based; settings: 50 ng/ml; confluent and subconfluent conditions; compared to PBS
Method: Human RPE cells (gift of David R. Hinton, University of Southern California) were cultured in Dulbecco's modified essential medium (Invitrogen) containing 10% fetal bovine serum, penicillin G (100 U/ml), streptomycin sulfate (0.1 mg/ml) (all from Sigma-Aldrich) at 37° C. under 10% CO2 and 90% room air. Cells were used for experiments upon attaining 80% or 100% confluence.
(§1) The RPE/choroid complex was dissected from the mouse eye and sonicated in lysis buffer (20 mM imidazole HCl, 10 mM KCl, 1 mM MgCl2, 10 mM EGTA, 1% Triton X-100, 10 mM NaF, 1 mM Na molybdate, 1 mM EDTA with protease inhibitor (Sigma-Aldrich)) on ice for 45 sec. VEGF protein levels (pg/ml) in the RPE cell culture supernatant or the RPE/choroid lysate were determined by ELISA (R&D Systems) and normalized to total protein (μg/ml) (Bio-Rad).
(§2) VEGF protein data are represented as the mean±s.e.m. of at least 3 independent experiments and compared using a two-tailed Student's t-test. The null hypothesis was rejected at P<0.05.

VEGF = VEGF levels in mouse eye tissue after intravitreous injection (VEGF ELISA); assay type: in vivo; settings: wild-type mice, 4 hours after injection, dose-dependent
Method: as §1, §2

[1] = test system: macrophages or neutrophils in the choroid; assay: Leukocyte numbers in the choroid after intravitreous injection (flow cytometry); assay type: in vivo, mice; settings: 4 hours after intravitreous injection; data not shown
Method: Single cell suspensions isolated from mouse RPE/choroids via collagenase D treatment (20 U/mL; Roche Diagnostics) were incubated in Fc block (0.5 mg/mL; BD Pharmingen) for 15 min on ice, stained with Cy5-rat antibody to mouse F4/80 (1:30; Serotec), FITC-hamster antibody to mouse CD11c (1:100; Serotec), or PE-rat antibody to mouse Gr-1 (1:200; eBioscience), and subjected to FACS analysis (FACScalibur, BD Biosciences). Macrophages and neutrophils were defined as F4/80+CD11c- and Gr-1+F4/80-cells, respectively.

| Molecule | CNV (volume of laser-induced CNV) (laser-induced CNV) | human RPE cell secretion of VEGF (human RPE cells) | VEGF levels in the RPE/choroid (VEGF) | number of macrophages or neutrophils in the choroid [1] |
| --- | --- | --- | --- | --- |
| N=C(N)NCCC[C@H](NC(=O)COCC(c1ccccc1)c1ccccc1)C(=O)O [C3aRA, N^2-[(2,2-diphenylethoxy)acetyl]-arginine] | reduced | – | – | – |
| AcF[OPdChaWR] [C5aRA] | reduced | – | – | – |
| C3a: activated complement component 3 (human), applied to RPE cells or injected intravitreously | – | upregulated | increase | no increase |
| C5a: activated complement component 5 (human), applied to RPE cells or injected intravitreously (protein, UniProt P01031 678-751, looked up, C5a anaphylatoxin) C5a anaphylatoxin: TLQKKIEEIAAKYKHSVVKKCCYDGACVNNDETCEQRAARISLGPRCIKAFTECCVVASQLRANISHKDMQLGR | – | upregulated | increase | no increase |
